The results in this text go back to patent US20170202838A1, “IMMUNOMODULATOR” (TAIHO PHARMACEUTICAL CO., LTD., priority 2015, published 2017).

The test system of experiment [1] is B16F10. The experiment is described as follows: In vitro growth of mouse melanoma cell line B16F10, CellTiter-Glo2.0 (Reference Example 1). As to conditions: B16F10, 3 days culture. Format: cell-based. The protocol:
(§1) The mouse melanoma cell lines B16F10 and K1735M2 and the mouse colon cancer cell line MC38 were seeded in a 96-well plate at 3×10^3 cells/well. Compound (I) or the EGFR tyrosine kinase inhibitor (i.e., Erlotinib, Afatinib, AZD9291, or Co1686 (Rociletinib)) that had been diluted to the given concentration was added 24 hours later. Thereafter, culture was conducted for 3 days, and the number of cells was determined using CellTiter-Glo2.0 (Promega, G9243).
A general note: Cellular ATP, detected with luciferase, serves as a proxy for viable cell number.

The subject of experiment [2] is MC38. The experiment is described as follows: Tumor volume of subcutaneous mouse colon cancer cell line, in vivo model (Example 9). The note with it: Compound (I) 50 mg/kg, compared with control group (FIG. 11). The method, then:
(§2) A cell suspension of the mouse colon cancer cell line MC38 was prepared with the use of PBS(-) and 50% Matrigel, and the cell suspension was injected subcutaneously into mice at 1×10^6 cells/mouse. The mice were divided into groups when the average subcutaneous tumor volume reached approximately 50 mm^3, Compound (I) was administered at 50 mg/kg or the anti-PD-1 antibody was administered at 100 μg/mouse, and the tumor volume was measured with the elapse of time. The tumor volume was determined on the basis of the longer diameter and the shorter diameter of the tumor measured percutaneously in accordance with Equation A shown below.
Tumor volume (mm^3)=longer diameter (mm)×shorter diameter (mm)^2/2 (Equation A)

For experiment [3], the system named is MC38. Briefly: Immune-system-associated gene expression in tumors via real-time PCR (Example 11). Format: in vivo, mouse. As to conditions: final day of administration, relative to control. The protocol: as §2, with “(50 mg/kg)” for “was administered at 50 mg/kg”, “antibody (50 μg/mouse)” for “antibody”, “thereto alone or Compound (I) (50 mg/kg) was administered in combination with the anti-PD-1 antibody (50 μg/mouse),” for “at 100 μg/mouse,”
FIGS. 14 to 16 show changes in the immune-system-associated gene expression levels in tumors of the groups on the final day of administration of Compound (I). The tumor samples were obtained from the groups on the final day of administration of Compound (I) to prepare cDNA samples. The prepared cDNA samples were subjected to gene expression analysis via real-time PCR with the use of various immune-system-associated gene probes, and the results thereof were plotted. β-Actin was used as a control. Each plot indicates a gene expression level relative to a value of one of the controls. In the group to which Compound (I) had been administered, CD3, CD4, CD8, NK1.1, IL-2, IFN-γ, Perforin, Granzyme B, and CD69 gene expression levels increased, compared with those in the group to which Compound (I) had not been administered.

For experiment [4], the system named is K1735M2. The experiment is described as follows: In vitro growth of mouse melanoma cell line K1735M2, CellTiter-Glo2.0 (Reference Example 1). The format is cell-based. As to conditions: K1735M2, 3 days culture. The protocol: as §1

Take `C=CC(=O)N[C@H]1CCc2c(-c3cnc4ccccc4c3)c3c(N)ncnc3n2C1` [Compound (I), (S)—N-(4-amino-5-(quinolin-3-yl)-6,7,8,9-tetrahydropyrimido[5,4-b]indolizin-8-yl)acrylamide]: the “suppression of cell growth (number of cells)” value in experiment [1] is “did not suppress the growth of any cells”. In addition, the “extent of tumor growth inhibition (tumor volume)” value in experiment [2] was “greater”. Moreover, in experiment [3] (β-Actin control (FIG. 14)), the “CD3 gene expression level in tumors” value is “increased”, the “CD4 gene expression level in tumors” value is “increased” and the “CD8 gene expression level in tumors” value was “increased”. Further, in experiment [3] (β-Actin control (FIG. 15)), the “IFN-γ gene expression level in tumors” value is given as “increased”, the “IL-2 gene expression level in tumors” value is recorded as “increased” and the “NK1.1 gene expression level in tumors” value was “increased”. Besides, in experiment [3] (β-Actin control (FIG. 16)), the “CD69 gene expression level in tumors” value is “increased”, the “Granzyme B gene expression level in tumors” value is given as “increased” and the “Perforin gene expression level in tumors” value was “increased”. In addition, the “suppression of cell growth (number of cells)” value in experiment [4] was “did not suppress the growth of any cells”.
